# From US20160223562A1, “Method for Determining the Concentration of a Peptide” (JPT Peptide Technologies GmbH, priority 2010, published 2016)
# Square brackets hold non-standard residues; d marks the D form. Peptide text beside a SMILES is read from it. Tyr(3-NO2) = N[C@@H](Cc1ccc(O)c([N+](=O)[O-])c1)C(=O)O
# Assays:
# Trypsin [1] = molecular target: T1, Trypsin (Sus scrofa, UniProt P00761); assay: Trypsin cleavage of C-terminal quantification tag -SA-nitroTyr-G from peptides, LC-MS with UV detection at 350 nm; format: biochemical; settings: after reduction and alkylation, trypsin enzyme/substrate 1:50 over night at RT
# T1 construct: purchased Promega Corporation V511
# Method: 23 peptides carrying the C-terminal quantification-tag-SA-nitroTyr-G-OH (SEQ ID NO:2) were synthesized by Fmoc-based solid phase peptide synthesis and purified by HPLC. Each peptide was subjected to the following trypsin cleavage protocol:
# (§1) Trypsin Activation: Trypsin (20 μg, sequencing grade modified trypsin, Promega Corporation, Madison, Wis., USA, catalogue no. V511, specific activity 16.965 u/mg) was dissolved in Trypsin resuspension buffer (200 μL, Promega, catalogue no. V542A, ingredient 50 mM acetic acid) and incubated for 15 min at 37° C.
# (§2) Reduction and alkylation: The peptide (approx. 0.05 mg) was dissolved in 1 M urea and 100 mM fresh ammonium hydrogen carbonate (300 μL). TCEP (Tris(2-carboxyethyl) phosphine hydrochloride, 0.2 M, 7.5 μL, final concentration 5 mM) was added and the solution incubated at 37° C. for 1 h. After addition of iodoacetamide (0.5 M, 6.0 μL, final concentration 10 mM) the solution was incubated at RT in the dark for another 30 min. Digestion: The sample was digested with activated Trypsin solution (10 μL per well, 1.0 μg, resulting enzyme/substrate ratio 1:50) over night at RT. To stop the digestion, HCl (2 M, 8 μL final concentration 50 mM) and TFA (3.2 μL, final concentration 1%, pH<2) were added. Finally, the sample was analyzed by LC-MS at 350 nm.
# Trypsin [2] = molecular target: T1, Trypsin; assay: Trypsin cleavage of N-terminal quantification tag Ac-nitroTyr-SGK- from peptides, LC-MS with UV detection at 350 nm; format: biochemical; settings: for cleavage efficiency in words: trypsin; for Kusebauch 24 h, RT: Percent Cleavage of Tag [by UV350 - Peptide-Tag vs. Tag]: trypsin protocol of example 9, 24 h
# Method: as §1, §2
# 38 peptides carrying the N-terminal quantification-tag Ac-nitroTyr-SGK-(SEQ ID NO:32) were synthesized by SPOT synthesis (Table 3). The peptide sequences are based on two different amino acid sequences, which in each case contain 19 different amino acids N-terminally attached to lysine (the 20 naturally occurring amino acids except cysteine).
# All peptides were subjected to the same trypsin cleavage protocol as described in example 9. It is apparent that the quantification tag is efficiently cleaved (>99%) in nearly all cases.
# T1 sequence (P00761 9-231): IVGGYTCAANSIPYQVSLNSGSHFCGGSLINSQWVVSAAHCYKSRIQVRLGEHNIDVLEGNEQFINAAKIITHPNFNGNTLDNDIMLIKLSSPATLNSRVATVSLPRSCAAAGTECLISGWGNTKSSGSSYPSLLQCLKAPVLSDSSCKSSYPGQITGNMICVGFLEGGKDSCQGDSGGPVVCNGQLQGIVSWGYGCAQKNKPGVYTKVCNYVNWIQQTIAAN
SMILES,Percent Cleavage of Tag [by UV at 350 nm] (Trypsin [1]) [%],cleavage efficiency in words (Trypsin [2]),"Kusebauch 24 h, RT: Percent Cleavage of Tag [by UV350 - Peptide-Tag vs. Tag] (Trypsin [2]) [%]"
CC(C)C[C@H](N)C(=O)N1CCC[C@H]1C(=O)N[C@@H](CC(N)=O)C(=O)NCC(=O)N[C@H](C(=O)N[C@@H](Cc1ccccc1)C(=O)N[C@H](C(=O)N1CCC[C@H]1C(=O)N[C@@H](CC(=O)O)C(=O)N[C@@H](Cc1ccccc1)C(=O)N[C@@H](CCC(N)=O)C(=O)N[C@@H](CCC(=O)O)C(=O)N[C@@H](Cc1ccccc1)C(=O)N[C@H](C(=O)N[C@@H](CC(N)=O)C(=O)N[C@@H](CCCCN)C(=O)N[C@@H](CO)C(=O)N[C@@H](C)C(=O)N[C@@H](Cc1ccc(O)c([N+](=O)[O-])c1)C(=O)NCC(=O)O)C(C)C)[C@@H](C)O)C(C)C [LPNGVFTPDFQEFVN-K-SA-nitroTyr-G] (H-LPNGVFTPDFQEFVNKSA[Tyr(3-NO2)]G-OH),95.4,–,–
CC[C@H](C)[C@H](NC(=O)[C@@H](NC(=O)[C@@H](N)CO)C(C)C)C(=O)N[C@@H](CC(=O)O)C(=O)N1CCC[C@H]1C(=O)N[C@H](C(=O)N1CCC[C@H]1C(=O)N[C@@H](C)C(=O)N1CCC[C@H]1C(=O)N[C@H](C(=O)NCC(=O)N[C@@H](CC(=O)O)C(=O)N[C@@H](CO)C(=O)N[C@@H](Cc1c[nH]cn1)C(=O)N[C@H](C(=O)N[C@@H](CC(=O)O)C(=O)NCC(=O)N[C@@H](C)C(=O)N[C@@H](C)C(=O)N[C@@H](CCCCN)C(=O)N[C@@H](CO)C(=O)N[C@@H](C)C(=O)N[C@@H](Cc1ccc(O)c([N+](=O)[O-])c1)C(=O)NCC(=O)O)C(C)C)C(C)C)C(C)C [Peptide 2] (H-SVIDPVPAPVGDSHVDGAAKSA[Tyr(3-NO2)]G-OH),100,–,–
"CC[C@H](C)[C@H](NC(=O)[C@H](Cc1ccccc1)NC(=O)[C@H](Cc1ccc(O)cc1)NC(=O)[C@H](Cc1c[nH]cn1)NC(=O)[C@@H](NC(=O)[C@H](CC(=O)O)NC(=O)[C@H](CCCCN)NC(=O)CNC(=O)[C@H](CO)NC(=O)[C@H](Cc1ccc(O)c([N+](=O)[O-])c1)NC(C)=O)[C@@H](C)O)C(=O)N[C@@H](CC(=O)O)C(=O)N[C@@H](CC(C)C)C(=O)N[C@@H](CC(N)=O)C(=O)N[C@@H](CCCCN)C(=O)O [Peptide 3, Ac-nitroTyr-SGKDTHYFIDLN-K-OH] (Ac-[Tyr(3-NO2)]SGKDTHYFIDLNK-OH)",100,not efficiently cleaved,60.2
"CC[C@H](C)[C@H](NC(=O)[C@H](Cc1ccccc1)NC(=O)[C@H](Cc1ccc(O)cc1)NC(=O)[C@H](Cc1c[nH]cn1)NC(=O)[C@@H](NC(=O)[C@H](CCC(=O)O)NC(=O)[C@H](CCCCN)NC(=O)CNC(=O)[C@H](CO)NC(=O)[C@H](Cc1ccc(O)c([N+](=O)[O-])c1)NC(C)=O)[C@@H](C)O)C(=O)N[C@@H](CC(=O)O)C(=O)N[C@@H](CC(C)C)C(=O)N[C@@H](CC(N)=O)C(=O)N[C@@H](CCCCN)C(=O)O [Peptide 4, Ac-nitroTyr-SGKETHYFIDLN-K-OH] (Ac-[Tyr(3-NO2)]SGKETHYFIDLNK-OH)",100,–,100.0
"CC[C@H](C)[C@H](NC(=O)[C@H](Cc1ccccc1)NC(=O)[C@H](Cc1ccc(O)cc1)NC(=O)[C@H](Cc1c[nH]cn1)NC(=O)[C@@H](NC(=O)[C@H](Cc1ccccc1)NC(=O)[C@H](CCCCN)NC(=O)CNC(=O)[C@H](CO)NC(=O)[C@H](Cc1ccc(O)c([N+](=O)[O-])c1)NC(C)=O)[C@@H](C)O)C(=O)N[C@@H](CC(=O)O)C(=O)N[C@@H](CC(C)C)C(=O)N[C@@H](CC(N)=O)C(=O)N[C@@H](CCCCN)C(=O)O [Peptide 5, Ac-nitroTyr-SGKFTHYFIDLN-K-OH] (Ac-[Tyr(3-NO2)]SGKFTHYFIDLNK-OH)",100,–,99.0
"CC[C@H](C)[C@H](NC(=O)[C@H](Cc1ccccc1)NC(=O)[C@H](Cc1ccc(O)cc1)NC(=O)[C@H](Cc1c[nH]cn1)NC(=O)[C@@H](NC(=O)CNC(=O)[C@H](CCCCN)NC(=O)CNC(=O)[C@H](CO)NC(=O)[C@H](Cc1ccc(O)c([N+](=O)[O-])c1)NC(C)=O)[C@@H](C)O)C(=O)N[C@@H](CC(=O)O)C(=O)N[C@@H](CC(C)C)C(=O)N[C@@H](CC(N)=O)C(=O)N[C@@H](CCCCN)C(=O)O [Peptide 6, Ac-nitroTyr-SGKGTHYFIDLN-K-OH] (Ac-[Tyr(3-NO2)]SGKGTHYFIDLNK-OH)",100,–,100.0
"CC[C@H](C)[C@H](NC(=O)[C@H](Cc1ccccc1)NC(=O)[C@H](Cc1ccc(O)cc1)NC(=O)[C@H](Cc1c[nH]cn1)NC(=O)[C@@H](NC(=O)[C@@H](NC(=O)[C@H](CCCCN)NC(=O)CNC(=O)[C@H](CO)NC(=O)[C@H](Cc1ccc(O)c([N+](=O)[O-])c1)NC(C)=O)[C@@H](C)CC)[C@@H](C)O)C(=O)N[C@@H](CC(=O)O)C(=O)N[C@@H](CC(C)C)C(=O)N[C@@H](CC(N)=O)C(=O)N[C@@H](CCCCN)C(=O)O [Peptide 8, Ac-nitroTyr-SGKITHYFIDLN-K-OH] (Ac-[Tyr(3-NO2)]SGKITHYFIDLNK-OH)",100,–,100.0
"CC[C@H](C)[C@H](NC(=O)[C@H](Cc1ccccc1)NC(=O)[C@H](Cc1ccc(O)cc1)NC(=O)[C@H](Cc1c[nH]cn1)NC(=O)[C@@H](NC(=O)[C@H](CCCCN)NC(=O)[C@H](CCCCN)NC(=O)CNC(=O)[C@H](CO)NC(=O)[C@H](Cc1ccc(O)c([N+](=O)[O-])c1)NC(C)=O)[C@@H](C)O)C(=O)N[C@@H](CC(=O)O)C(=O)N[C@@H](CC(C)C)C(=O)N[C@@H](CC(N)=O)C(=O)N[C@@H](CCCCN)C(=O)O [Peptide 9, Ac-nitroTyr-SGKKTHYFIDLN-K-OH] (Ac-[Tyr(3-NO2)]SGKKTHYFIDLNK-OH)",99.2,good cleavage efficiencies,100.0
"CC[C@H](C)[C@H](NC(=O)[C@H](Cc1ccccc1)NC(=O)[C@H](Cc1ccc(O)cc1)NC(=O)[C@H](Cc1c[nH]cn1)NC(=O)[C@@H](NC(=O)[C@H](CC(C)C)NC(=O)[C@H](CCCCN)NC(=O)CNC(=O)[C@H](CO)NC(=O)[C@H](Cc1ccc(O)c([N+](=O)[O-])c1)NC(C)=O)[C@@H](C)O)C(=O)N[C@@H](CC(=O)O)C(=O)N[C@@H](CC(C)C)C(=O)N[C@@H](CC(N)=O)C(=O)N[C@@H](CCCCN)C(=O)O [Peptide 10, Ac-nitroTyr-SGKLTHYFIDLN-K-OH] (Ac-[Tyr(3-NO2)]SGKLTHYFIDLNK-OH)",100,–,100.0
CC[C@H](C)[C@H](NC(=O)[C@H](CC(C)C)NC(=O)[C@@H](N)CCC(=O)O)C(=O)N[C@@H](Cc1ccccc1)C(=O)N[C@@H](CCC(N)=O)C(=O)N[C@@H](CCC(=O)O)C(=O)N[C@H](C(=O)N[C@@H](C)C(=O)N[C@@H](CCCNC(=N)N)C(=O)N[C@@H](CO)C(=O)N[C@@H](C)C(=O)N[C@@H](Cc1ccc(O)c([N+](=O)[O-])c1)C(=O)NCC(=O)O)[C@@H](C)O [Peptide 22] (H-ELIFQETARSA[Tyr(3-NO2)]G-OH),100,–,–
"CC(=O)N[C@@H](Cc1ccc(O)c([N+](=O)[O-])c1)C(=O)N[C@@H](CO)C(=O)NCC(=O)N[C@@H](CCCCN)C(=O)N[C@@H](Cc1c[nH]c2ccccc12)C(=O)N[C@H](C(=O)N[C@@H](C)C(=O)N[C@@H](CC(C)C)C(=O)N[C@@H](CO)C(=O)N[C@@H](CC(C)C)C(=O)N[C@@H](CC(=O)O)C(=O)N[C@@H](CC(=O)O)C(=O)N[C@H](C(=O)N[C@@H](CCCCN)C(=O)O)C(C)C)C(C)C [Peptide 39, Ac-nitroTyr-SGKWVALSLDDV-K-OH] (Ac-[Tyr(3-NO2)]SGKWVALSLDDVK-OH)",–,–,100.0
"CC(=O)N[C@@H](Cc1ccc(O)c([N+](=O)[O-])c1)C(=O)N[C@@H](CO)C(=O)NCC(=O)N[C@@H](CCCCN)C(=O)N[C@@H](Cc1ccc(O)cc1)C(=O)N[C@H](C(=O)N[C@@H](C)C(=O)N[C@@H](CC(C)C)C(=O)N[C@@H](CO)C(=O)N[C@@H](CC(C)C)C(=O)N[C@@H](CC(=O)O)C(=O)N[C@@H](CC(=O)O)C(=O)N[C@H](C(=O)N[C@@H](CCCCN)C(=O)O)C(C)C)C(C)C [Peptide 40, Ac-nitroTyr-SGKYVALSLDDV-K-OH] (Ac-[Tyr(3-NO2)]SGKYVALSLDDVK-OH)",–,–,99.1
